Legend:
HO-2 = HO-2 immunoblot of mouse tissue homogenates after hemin; assay type: in vivo, mice; conditions: any of the tissues; hemin 3× during 7 d
[1] = tested on: caerulein-induced pancreatitis; assay: Caerulein-induced pancreatitis and its pulmonary complications after hemin pretreatment; assay type: in vivo, Balb/c mice; conditions: hemin 3× every other day, then caerulein hourly 7×; 12 h
Method: (A,B) Mice were injected intraperitoneally with hemin (H) or vehicle (V; 7 mice/group) every other day (3×; arrows) followed by injection with either saline (Sal) or caerulein (Cae) hourly (7×; arrows) and then harvesting of the pancreata and lungs at 12 h after first Sal or Cae injection. Sera were collected for amylase/lipase measurement. (C-E) Pancreatic and lung tissues (from panels A,B) were used to determine trypsin (pmol/mg protein) and myeloperoxidase (MPO; ng/mg wet tissue) enzyme activities and to assess extent of tissue injury. Data are presented as mean±SD. A representative hematoxylin and eosin staining of lung is shown (scale bar=50 μM).
Mice and pancreatitis models. Experiments and animal care were performed according to approved institutional guidelines. […]
Animal procedures. […] Immunofluorescence staining was performed as described (29) and images were analyzed using confocal microscopy. Total tissue lysates were prepared by homogenization in Laemmli sample buffer and analyzed by SDS-PAGE followed by transfer to membranes for blotting and protein visualization by enhanced chemiluminescence. Trypsin activity was determined using a fluorimetric assay and the substrate Boc-Gln-Ala-Arg-MCA (Peptides International Inc.; Louisville, Ky.), and comparison to a standard curve generated with purified trypsin as described. […]

Hemin
HO-2 levels (HO-2): did not change | lung histology (hemorrhage, alveolar collapse) [1]: marked hemorrhage and alveolar collapse in vehicle (a) compared to hemin (b) pretreated mice
